Experimental data: patent US20110039763A1, “TARGETED ANTIMICROBIAL MOIETIES” (C3 JIAN, INC., priority 2009, published 2011)
“Also recorded” adds a separate entry of the source.

Experiments:
[1] = test system: microorganisms; assay: Peptide activities: targeting/binding, antimicrobial, growth or phenotype altering (Tables 7, 8); format: cell-based; settings: peptides having multiple activities
[2] = test system: microorganisms; assay: Targeting peptide binding to target microorganisms (Tables 3, 10, 12); settings: microorganism(s) the targeting peptide binds; binding in aqueous buffers varied with peptide solubility, preferably 1x PBS
[3] = test system: microorganisms; assay: Morphology, biofilm and growth disrupting peptides (Table 5); format: cell-based; set-up: key: A: Peptide aggregates; B: Less hyphal formation; Clumps; Diffuse clumps and small polyps; F: Diffuse growth; H: Thin; I: Growth inhibition; Microcolony formation; Rippled; Small polyps; Thick; W: Halo formation on top, microlonies on bottom
Excerpt: In certain embodiments peptides that induce alterations in phenotype or other biological activities can also be used as antimicrobial effector moieties.

Row | Substance | Activities [1] | Target(s) [2] | Organism, effect ([3]; F. nucleatum) | Organism, effect ([3]; P. gingivalis) | Organism, effect ([3]; S. mutans)
1 | PF-C088: peptide having multiple activities (DIANNILNSVSERLIIA; Peptide with targeting and/or antimicrobial activity) | G B | A. naeslundii; also recorded: F. nucleatum; also recorded: P. gingivalis; also recorded: S. mutans; also recorded: T. denticola | F. nucleatum (H) | P. gingivalis (R) | S. mutans (I)
2 | PF-C131: peptide having multiple activities (chain 1 QWIVAKREIRMHIYCHISVIHVIIFFG; chain 2 QWIVAKREIRMHIYCHISVIHVIIFFG; Peptide with targeting and/or antimicrobial activity) | G B | A. naeslundii; also recorded: F. nucleatum; also recorded: P. gingivalis; also recorded: S. mutans | F. nucleatum (T) | – | S. mutans (F)
3 | PF-C136: peptide having multiple activities (chain 1 LILSYQASVYPLFAYLCQQKDY; chain 2 LILSYQASVYPLFAYLCQQKDY; Peptide with targeting and/or antimicrobial activity) | G B | A. naeslundii; also recorded: F. nucleatum; also recorded: P. gingivalis; also recorded: S. mutans; also recorded: T. denticola | F. nucleatum (C) | P. gingivalis (R) | –
4 | PF-C137: peptide having multiple activities (chain 1 QRMYWFKRGFETGDFSAGDTFAELK; chain 2 QRMYWFKRGFETGDFSAGDTFAELK; Peptide with targeting and/or antimicrobial activity) | G B | A. naeslundii; also recorded: F. nucleatum; also recorded: P. gingivalis; also recorded: S. mutans | F. nucleatum (T) | – | –
5 | PF-C139: peptide having multiple activities (chain 1 LLASHPERLSLGVFFVYRVLHLLLENT; chain 2 LLASHPERLSLGVFFVYRVLHLLLENT; Peptide with targeting and/or antimicrobial activity) | G B | A. naeslundii; also recorded: F. nucleatum; also recorded: P. gingivalis; also recorded: S. mutans; also recorded: T. denticola | – | – | S. mutans (F)
6 | PF-C142: peptide having multiple activities (chain 1 DFPPLSFFRRRFHAYTAPIDNFFGANPF; chain 2 DFPPLSFFRRRFHAYTAPIDNFFGANPF; Peptide with targeting and/or antimicrobial activity) | G B | A. naeslundii; also recorded: F. nucleatum; also recorded: P. gingivalis; also recorded: S. mutans; also recorded: T. denticola | – | – | S. mutans (I)
7 | PF-C143: peptide having multiple activities (chain 1 VVFGGGDRLV; chain 2 VVFGGGDRLV; Peptide with targeting and/or antimicrobial activity) | G B | A. naeslundii; also recorded: F. nucleatum; also recorded: P. gingivalis; also recorded: S. mutans; also recorded: T. denticola | F. nucleatum (C) | – | –
8 | PF-C145: peptide having multiple activities (chain 1 YGKESDP; chain 2 YGKESDP; Peptide with targeting and/or antimicrobial activity) | G B | A. naeslundii; also recorded: F. nucleatum; also recorded: P. gingivalis; also recorded: S. mutans; also recorded: T. denticola | F. nucleatum (C) | – | S. mutans (I)
9 | PF-C281: peptide having multiple activities (chain 1 KKEKLLTAIRLQHRAEIRGYFTIFFLFFRI; chain 2 KKEKLLTAIRLQHRAEIRGYFTIFFLFFRI; Peptide with targeting and/or antimicrobial activity) | G B | A. naeslundii; also recorded: F. nucleatum; also recorded: P. gingivalis; also recorded: S. mutans; also recorded: T. denticola | – | – | S. mutans (F)
